Measured values as given in PubChem BioAssay AID1918940 (Molecular Pharmacology Branch, DTP, NCI, 2023).

Tested on: NCI-H211 complex spheroid viability
Experiment: Anticancer human tumor NCI-H211 cell line growth inhibition [LSD1];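 note: luminescent viability read after seven days of drug exposure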;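 for viability, T/C: 100% = DMSO vehicle control viability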
Conditions: for IC50: curve of first compound; for viability, T/C: stronger effect = lower value
Excerpt: Multicellular complex tumor spheroid response to LSD1 Inhibitor Iadademstat in combination with a variety of drugs and investigational agents in selected tumor cell lines
The current study was undertaken to assess response to LSD1 inhibitors in combination with standard-of-care drugs and investigational agents in solid tumor complex spheroid models as well as in the K-562 leukemia. Complex spheroids include a stromal component modeled by human endothelial cells (HUVEC) and fibroblasts modeled by human mesenchymal stem cells (MSCs). The concentration ranges selected for each drug and investigational agent were based upon clinically achievable concentrations if the clinical Cmax of the agent was known.
Compounds. The drugs and investigational agents used in this study are listed on Table 1. All of the agents used, including staurosporine (NSC755774) and gemcitabine (NSC613327), were obtained from the Developmental Therapeutics Program, NCI. FDA-approved anticancer drugs are available from the NCI at http://dtp.nci.nih.gov/branches/dscb/oncology_drugset_explanation.html. Drugs and investigational agents were >95% pure by proton nuclear magnetic resonance (NMR) and liquid chromatography/mass spectrometry (LC/MS). Stock solutions were prepared at 400x in DMSO, stored at -70 degrees C, and diluted in fresh medium prior to their use. The final concentration of DMSO in cell culture wells never exceeded 0.25% (v/v). The FDA-approved anticancer drug set is available from the Developmental Therapeutics Program at https://dtp.cancer.gov/organization/dscb/obtaining/available_plates.htm. All drugs and investigational agents were tested over a range starting from a high concentration at or near the clinical Cmax and decreasing in half-log increments. If the clinical Cmax for an agent had not been determined, the highest concentration tested was 10 microM.
Cell Lines. The patient-derived cancer cell (PDC) lines: 292921-168-R-J2-PDC, K24384-001-R-PDC, and 521955-158-R2-J5-PDC pancreatic carcinomas, 556581-035-R-J1 ovarian carcinoma, 324938-238-R-J1-PDC, 855422-203-R-J1-PDC and 883617-216-R-J1-PDC urothelial bladder carcinomas, 743489-274-T-PDC renal cell carcinoma, 138582-R-J1 Merkel cell tumor, K60290-347-R-J1 and K57222-313-R-J1-PDC glioblastomas, 653999-131-R-J2-PDC, LG0703-F948-PDC, and 349418-098-R-PDC non-small cell lung carcinomas, 885512-296-R-J2-PDC, 171881-019-R-J1-PDC breast carcinomas and 186277-243-T-J2-PDC and 233499-124-R-J2-PDC colon carcinomas were obtained from the NCI Patient-Derived Models Repository (PDMR, https://pdmr.cancer.gov). The established cell lines NCI/ADR-RES (RRID:CVCL_14520 and OVCAR-5 (RRID:CVCL_1628) ovarian carcinomas, 786-O (RRID:CVCL_1051) and A498 (RRID:CVCL_A498) renal cell carcinoma, NCI-H211 (ATCC, cat. CRL-5824; RRID:CVCL_1529), NCI-H196 (ATCC, cat. CRL-5823, RRID:CVCL_1509), SW 1271 (ATCC, cat. CRL-2177, RRID:CVCL_1716) and NCI-H1876 (ATCC, cat. CRL-5902, RRID:CVCL_1503) small cell lung carcinomas, MDA-MB-231 (RRID:CVCL_0062) and MDA-MB-468 (RRID:CVCL_0419)breast carcinomas (10-12). Pooled donor human umbilical vein endothelial cells (HUVEC, Lonza, cat. CC-2519) and human mesenchymal stem cells (hMSC, Lonza, cat. PT-2501) were purchased from Lonza (Walkersville, MD).
Cell Culture. All cells were maintained in an incubator at 37 degrees C and 5% CO2 with 95% humidity. The PDC lines were cultured according to standard operating procedures established by the NCI PDMR (https://pdmr.cancer.gov). Briefly all PDCs were thawed and cultured in Matrigel-coated flasks prepared with a working solution of 1X Ham's F-12 nutrient mix, without supplementation (Invitrogen, Waltham, MA, cat. 11765054), 100 U/mL penicillin-streptomycin (Invitrogen, cat. 15140122), and 2.5% Matrigel (Corning Inc., Corning, NY, cat. 354248) for the first three passages. […]

## CC(C)CC(NC(=O)CNC(=O)c1cc(Cl)ccc1Cl)B1OC(=O)CC(CC(=O)O)(C(=O)O)O1 (stereo not given) + NC1CC1c1ccc(-c2cccc(O)c2)cc1
Second compound 0.1 µM
  IC50: 15.4 nM
Second compound 0.316 µM
  IC50: 16 nM
Second compound 1 µM
  IC50: 14.9 nM
Second compound 3.16 µM
  IC50: 13.9 nM
Second compound 10 µM
  IC50: 7.26 nM
Second compound 0.1 µM, first compound 0.000316 µM
  viability, T/C: 90.8%
Second compound 0.1 µM, first compound 0.001 µM
  viability, T/C: 76.5%
Second compound 0.1 µM, first compound 0.00316 µM
  viability, T/C: 82.2%
Second compound 0.1 µM, first compound 0.01 µM
  viability, T/C: 61.9%
Second compound 0.1 µM, first compound 0.0316 µM
  viability, T/C: 29.3%
Second compound 0.1 µM, first compound 0.1 µM
  viability, T/C: 5.5%
Second compound 0.316 µM, first compound 0.000316 µM
  viability, T/C: 91.6%
Second compound 0.316 µM, first compound 0.001 µM
  viability, T/C: 102%
Second compound 0.316 µM, first compound 0.00316 µM
  viability, T/C: 97.5%
Second compound 0.316 µM, first compound 0.01 µM
  viability, T/C: 61.6%
Second compound 0.316 µM, first compound 0.0316 µM
  viability, T/C: 30%
Second compound 0.316 µM, first compound 0.1 µM
  viability, T/C: 5.69%
Second compound 1 µM, first compound 0.000316 µM
  viability, T/C: 74.5%
Second compound 1 µM, first compound 0.001 µM
  viability, T/C: 83.2%
Second compound 1 µM, first compound 0.00316 µM
  viability, T/C: 96.7%
Second compound 1 µM, first compound 0.01 µM
  viability, T/C: 57.4%
Second compound 1 µM, first compound 0.0316 µM
  viability, T/C: 27.8%
Second compound 1 µM, first compound 0.1 µM
  viability, T/C: 4.52%
Second compound 3.16 µM, first compound 0.000316 µM
  viability, T/C: 75.3%
Second compound 3.16 µM, first compound 0.001 µM
  viability, T/C: 82.8%
Second compound 3.16 µM, first compound 0.00316 µM
  viability, T/C: 93.4%
Second compound 3.16 µM, first compound 0.01 µM
  viability, T/C: 56.5%
Second compound 3.16 µM, first compound 0.0316 µM
  viability, T/C: 24.5%
Second compound 3.16 µM, first compound 0.1 µM
  viability, T/C: 4.84%
Second compound 10 µM, first compound 0.000316 µM
  viability, T/C: 71%
Second compound 10 µM, first compound 0.001 µM
  viability, T/C: 70.3%
Second compound 10 µM, first compound 0.00316 µM
  viability, T/C: 98.3%
Second compound 10 µM, first compound 0.01 µM
  viability, T/C: 38.5%
Second compound 10 µM, first compound 0.0316 µM
  viability, T/C: 17.4%
Second compound 10 µM, first compound 0.1 µM
  viability, T/C: 2.36%

## NS(=O)(=O)OCC1CC(n2ccc3c(NC4CCc5ccccc54)ncnc32)CC1O (stereo not given) + NC1CCC(NC2CC2c2ccccc2)CC1
Second compound 0.1 µM
  IC50: < 9.49 nM
Second compound 0.316 µM
  IC50: < 9.49 nM
Second compound 1 µM
  IC50: < 9.49 nM
Second compound 3.16 µM
  IC50: < 9.49 nM
Second compound 10 µM
  IC50: < 9.49 nM
Second compound 0.1 µM, first compound 0.00949 µM
  viability, T/C: 17.3%
Second compound 0.1 µM, first compound 0.03 µM
  viability, T/C: 8.79%
Second compound 0.1 µM, first compound 0.0949 µM
  viability, T/C: 2.05%
Second compound 0.1 µM, first compound 0.3 µM
  viability, T/C: 4.77%
Second compound 0.1 µM, first compound 0.949 µM
  viability, T/C: 0.6%
Second compound 0.1 µM, first compound 3 µM
  viability, T/C: 0.42%
Second compound 0.316 µM, first compound 0.00949 µM
  viability, T/C: 16.2%
Second compound 0.316 µM, first compound 0.03 µM
  viability, T/C: 7.48%
Second compound 0.316 µM, first compound 0.0949 µM
  viability, T/C: 2.74%
Second compound 0.316 µM, first compound 0.3 µM
  viability, T/C: 0.89%
Second compound 0.316 µM, first compound 0.949 µM
  viability, T/C: 0.5%
Second compound 0.316 µM, first compound 3 µM
  viability, T/C: 0.48%
Second compound 1 µM, first compound 0.00949 µM
  viability, T/C: 15.2%
Second compound 1 µM, first compound 0.03 µM
  viability, T/C: 7.52%
Second compound 1 µM, first compound 0.0949 µM
  viability, T/C: 2.66%
Second compound 1 µM, first compound 0.3 µM
  viability, T/C: 1.51%
Second compound 1 µM, first compound 0.949 µM
  viability, T/C: 5.93%
Second compound 1 µM, first compound 3 µM
  viability, T/C: 0.59%
Second compound 3.16 µM, first compound 0.00949 µM
  viability, T/C: 11.4%
Second compound 3.16 µM, first compound 0.03 µM
  viability, T/C: 6.38%
Second compound 3.16 µM, first compound 0.0949 µM
  viability, T/C: 1.67%
Second compound 3.16 µM, first compound 0.3 µM
  viability, T/C: 0.54%
Second compound 3.16 µM, first compound 0.949 µM
  viability, T/C: 0.21%
Second compound 3.16 µM, first compound 3 µM
  viability, T/C: 5.61%
Second compound 10 µM, first compound 0.00949 µM
  viability, T/C: 7.36%
Second compound 10 µM, first compound 0.03 µM
  viability, T/C: 4.1%
Second compound 10 µM, first compound 0.0949 µM
  viability, T/C: 0.72%
Second compound 10 µM, first compound 0.3 µM
  viability, T/C: 0.29%
Second compound 10 µM, first compound 0.949 µM
  viability, T/C: 0.22%
Second compound 10 µM, first compound 3 µM
  viability, T/C: 0.19%
